Laboratory results from PubChem BioAssay (NCI).
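Five concentrations, 48 hours, 96-well plates. The concentration for 50% growth inhibition is given as GI50. TGI is the concentration that stops growth completely.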

Key:
Assay in all cases: inhibition of tumour cell growth, NCI panel, 48 h
[1] = system: TK-10 renal
[2] = system: SK-MEL-2 melanoma
[3] = system: OVCAR-5 ovarian
[4] = system: MOLT-4 leukemia
[5] = system: BT-549 breast
[6] = system: SK-MEL-28 melanoma
[7] = system: DU-145 prostate
[8] = system: MCF7 breast
[9] = system: UACC-257 melanoma
[10] = system: OVCAR-3 ovarian

Row | SMILES | GI50 [1] [µM] | TGI [1] [µM] | GI50 [2] [µM] | TGI [2] [µM] | GI50 [3] [µM] | TGI [3] [µM] | GI50 [4] [µM] | TGI [4] [µM] | GI50 [5] [µM] | TGI [5] [µM] | GI50 [6] [µM] | TGI [6] [µM] | GI50 [7] [µM] | TGI [7] [µM] | GI50 [8] [µM] | TGI [8] [µM] | GI50 [9] [µM] | TGI [9] [µM] | GI50 [10] [µM] | TGI [10] [µM]
1 | CCC(C)n1ncn(-c2ccc(N3CCN(c4ccc(OCC5COC(Cn6cncn6)(c6ccc(Cl)cc6Cl)O5)cc4)CC3)cc2)c1=O (stereo not given) | 28.6 | > 100 | 13.8 | 68.9 | 56.3 | > 100 | > 100 | > 100 | 3.6 | > 100 | > 100 | > 100 | > 100 | > 100 | 22.2 | > 100 | 57.7 | > 100 | 40.9 | > 100
2 | O=C1NC(=O)C(c2cnc3ccccn23)=C1c1cn2c3c(cc(F)cc13)CN(C(=O)N1CCCCC1)CC2 | 0.0416 | 23.8 | 8.8 | 27.2 | 23.5 | 64.4 | 3.41 | > 81.4 | 14.7 | 45 | 19.5 | 45 | 12.7 | 39.7 | < 0.01 | 21.1 | 18.1 | 40.4 | 11.8 | 44
